From patent publication US20210038607A1, “OXADIAZOLYLTHIOPHENE DERIVATIVES USEFUL AS HISTONE DEACETYLASE INHIBITORS” (Karus Therapeutics Limited, priority 2018, published 2021) come the findings set out here.

SMILES strings stand for the structures. A value given as a limit tells only on which side of the number the result lay.

Test [1] deals with T1, Human HDAC11 (Homo sapiens, UniProt Q96DB2).
T1 construct: Human HDAC11 (full length); His (N); host or cells: baculovirus expression system
T1 sequence (Q96DB2 1-347): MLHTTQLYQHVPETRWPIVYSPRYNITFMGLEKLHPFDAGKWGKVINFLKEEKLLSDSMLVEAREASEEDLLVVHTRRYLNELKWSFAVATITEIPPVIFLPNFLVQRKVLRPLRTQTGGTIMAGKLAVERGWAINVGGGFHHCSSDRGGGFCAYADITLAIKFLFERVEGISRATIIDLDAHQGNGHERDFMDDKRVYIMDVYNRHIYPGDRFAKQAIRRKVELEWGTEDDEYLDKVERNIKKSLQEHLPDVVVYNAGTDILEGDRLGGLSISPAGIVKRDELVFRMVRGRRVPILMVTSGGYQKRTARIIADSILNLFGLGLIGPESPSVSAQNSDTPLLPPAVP
Kind of test: HDAC11 biochemical assay, class IIa-specific substrate. The note with it: read-out: HDAC Isoform IC50 (nM) 11. Put shortly: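 Full-length N-His human HDAC11 from baculovirus, 5 ng/μl, incubated with 50 μM Boc-Lys(trifluoroacetyl)-AMC for 30 min at 30 °C. Buffer: 50 mM Tris-HCl pH 8.0, 137 mM NaCl, 2.7 mM KCl, 1 mM MgCl2, 1 mg/mL BSA, 1% DMSO. Developer releases AMC; fluorescence read at 360/460 nm.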

In test [2] the target is T2, Recombinant human HDAC6 (Homo sapiens, UniProt Q9UBN7).
T2 construct: full length, MW=159 kDa; GST (N); host or cells: Sf9 insect cells (baculovirus)
T2 sequence (Q9UBN7 1-1215): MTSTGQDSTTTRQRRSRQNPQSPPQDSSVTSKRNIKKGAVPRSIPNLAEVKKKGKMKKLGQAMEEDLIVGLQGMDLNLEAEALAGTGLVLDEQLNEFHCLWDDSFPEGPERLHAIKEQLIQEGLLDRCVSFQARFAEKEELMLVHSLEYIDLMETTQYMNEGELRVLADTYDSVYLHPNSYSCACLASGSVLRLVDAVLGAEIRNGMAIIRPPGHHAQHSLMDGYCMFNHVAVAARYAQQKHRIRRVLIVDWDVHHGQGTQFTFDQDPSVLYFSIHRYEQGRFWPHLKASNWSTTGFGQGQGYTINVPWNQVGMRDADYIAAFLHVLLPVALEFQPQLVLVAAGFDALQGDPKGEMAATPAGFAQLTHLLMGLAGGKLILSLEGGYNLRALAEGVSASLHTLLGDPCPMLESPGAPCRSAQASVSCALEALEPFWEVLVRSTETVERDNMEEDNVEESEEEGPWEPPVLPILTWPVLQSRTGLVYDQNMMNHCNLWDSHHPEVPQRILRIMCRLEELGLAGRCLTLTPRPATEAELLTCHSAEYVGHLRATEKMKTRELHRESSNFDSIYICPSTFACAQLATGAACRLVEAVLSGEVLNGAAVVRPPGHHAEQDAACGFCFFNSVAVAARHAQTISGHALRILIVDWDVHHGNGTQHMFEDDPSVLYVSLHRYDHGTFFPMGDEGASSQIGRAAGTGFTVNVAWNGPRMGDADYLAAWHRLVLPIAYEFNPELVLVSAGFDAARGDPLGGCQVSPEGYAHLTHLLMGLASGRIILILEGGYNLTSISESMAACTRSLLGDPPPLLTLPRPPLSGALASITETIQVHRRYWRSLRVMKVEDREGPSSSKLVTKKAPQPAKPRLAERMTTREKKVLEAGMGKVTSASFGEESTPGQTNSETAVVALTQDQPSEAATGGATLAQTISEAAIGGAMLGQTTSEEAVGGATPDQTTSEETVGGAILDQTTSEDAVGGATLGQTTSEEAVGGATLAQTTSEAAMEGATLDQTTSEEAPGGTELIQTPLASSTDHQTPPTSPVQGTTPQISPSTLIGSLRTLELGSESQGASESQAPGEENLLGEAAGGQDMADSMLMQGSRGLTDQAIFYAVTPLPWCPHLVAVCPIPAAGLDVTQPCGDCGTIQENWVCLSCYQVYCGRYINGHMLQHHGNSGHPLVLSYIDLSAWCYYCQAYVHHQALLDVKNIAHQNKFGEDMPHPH
Kind of test: HDAC6 biochemical assay, AMC-labeled peptide substrate. The note with it: HDAC6; read-out: HDAC Isoform IC50 (nM) 6. Put shortly: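 Two-step fluorogenic read-out: enzyme deacetylates 50 μM RHKK(Ac)AMC for 1 h at 30° C in pH 8.0 Tris buffer with BSA and 1% DMSO, then developer cleavage gives signal at Ex 360/Em 460. Enzyme: 0.3 ng/ul recombinant full-length human HDAC6, GST-tagged, Sf9-expressed.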

As usually defined, the IC50 is the midpoint of a concentration-inhibition curve. For `FC(F)(F)c1nc(-c2ccc(CN(c3ccncn3)c3cnccn3)s2)no1` [Example BZ, N-(Pyrazin-2-yl)-N-({5-[5-(trifluoromethyl)-1,2,4-oxadiazol-3-yl]thiophen-2-yl}methyl)pyrimidin-4-amine], the IC50 in test [1] was over 10000 nM; in test [2], at most 500 nM.
For `CS(=O)(=O)c1nccc(N(Cc2ccc(-c3noc(C(F)(F)F)n3)s2)c2cnccn2)n1` [Example CE, 2-Methanesulfonyl-N-(pyrazin-2-yl)-N-({5-[5-(trifluoromethyl)-1,2,4-oxadiazol-3-yl]thiophen-2-yl}methyl)pyrimidin-4-amine], in test [2], the half-inhibitory concentration (IC50) is at most 500 nM.
For the compound `FC(F)(F)c1nc(-c2ccc(CN(c3cncnc3)c3cnccn3)s2)no1` [Example CR, N-(Pyrazin-2-yl)-N-({5-[5-(trifluoromethyl)-1,2,4-oxadiazol-3-yl]thiophen-2-yl}methyl)pyrimidin-5-amine], the 50% inhibitory concentration (IC50) in test [1] was over 10000 nM; in test [2] it was at most 500 nM.
For `FC(F)(F)c1ccc(N(Cc2ccc(-c3noc(C(F)(F)F)n3)s2)c2cnccn2)nn1` [Example DH, N-(Pyrazin-2-yl)-6-(trifluoromethyl)-N-({5-[5-(trifluoromethyl)-1,2,4-oxadiazol-3-yl]thiophen-2-yl}methyl)pyridazin-3-amine], in that order: over 10000 nM and at most 500 nM.
As to `FC(F)(F)c1nc(-c2ccc(CN(c3cnccn3)c3ccc(N4CCCC4)nn3)s2)no1` [Example DI, N-(Pyrazin-2-yl)-6-(pyrrolidin-1-yl)-N-({5-[5-(trifluoromethyl)-1,2,4-oxadiazol-3-yl]thiophen-2-yl}methyl)pyridazin-3-amine], the 50% inhibitory concentration (IC50) in test [1] is over 10000 nM; in test [2], at most 500 nM.
For `CS(=O)(=O)c1ccc(N(Cc2ccc(-c3noc(C(F)(F)F)n3)s2)c2cnccn2)nn1` [Example DL, 6-Methanesulfonyl-N-(pyrazin-2-yl)-N-({5-[5-(trifluoromethyl)-1,2,4-oxadiazol-3-yl]thiophen-2-yl}methyl)pyridazin-3-amine] the same measures were over 10000 nM and at most 500 nM.
As for `FC(F)(F)c1nc(-c2ccc(CN(c3ccccn3)c3cnccn3)s2)no1` [Example V, N-(Pyridin-2-yl)-N-({5-[5-(trifluoromethyl)-1,2,4-oxadiazol-3-yl]thiophen-2-yl}methyl)pyrazin-2-amine], the 50% inhibitory concentration (IC50) is over 10000 nM in test [1] and at most 500 nM in test [2].
